These results are taken from ChEMBL document CHEMBL4622958, “Tetrazoles as anticancer agents: A review on synthetic strategies, mechanism of action and SAR studies” (Bioorg Med Chem, 2020).

Converted amounts (≈) assume the structure as drawn. Structures can show the parent of a compound that is named as a salt.

Data set [1] concerns U2OS. The experiment in a line: Cytotoxicity against human U2OS cells assessed as reduction in cell viability at 20 uM by CellTiter 96 non-radioactive cell proliferation assay relative to control. Type of data set: functional.
Data set [2] deals with U2OS. The experiment in a line: Cytotoxicity against human U2OS cells assessed as reduction in cell viability by CellTiter 96 non-radioactive cell proliferation assay. Type of data set: functional, cell-based.
A further data set has as its system HUVEC. Put plainly: Cytotoxicity against HUVEC assessed as reduction in cell viability. Particulars: Homo sapiens. Type of data set: cell-based.
For data set [3], the system named is CCRF-CEM. Put plainly: Cytotoxicity against human CCRF-CEM cells assessed as reduction in cell viability at 10 uM after 24 hrs by MTT assay relative to control. Type of data set: functional. The following applies: values are per cent of control.
The test system of data set [4] is CCRF-CEM. Put plainly: Cytotoxicity against human CCRF-CEM cells assessed as reduction in cell viability at 25 uM after 24 hrs by MTT assay relative to control. Type of data set: functional. The following applies: values are per cent of control.
The subject of data set [5] is CCRF-CEM. Put plainly: Cytotoxicity against human CCRF-CEM cells assessed as reduction in cell viability at 50 uM after 24 hrs by MTT assay relative to control. Type of data set: functional. Particulars: values are per cent of control.
Data set [6] relates to CCRF-CEM. The experiment in a line: Cytotoxicity against human CCRF-CEM cells assessed as reduction in cell viability at 10 uM after 48 hrs by MTT assay relative to control. Type of data set: functional. Particulars: values are per cent of control.
The test system of data set [7] is CCRF-CEM. The experiment in a line: Cytotoxicity against human CCRF-CEM cells assessed as reduction in cell viability at 25 uM after 48 hrs by MTT assay relative to control. Type of data set: functional. The following applies: values are per cent of control.
Data set [8] concerns CCRF-CEM. The experiment in a line: Cytotoxicity against human CCRF-CEM cells assessed as reduction in cell viability at 50 uM after 48 hrs by MTT assay relative to control. Type of data set: functional. The following applies: values are per cent of control.
Data set [9] concerns MCF7. The experiment in a line: Cytotoxicity against human MCF7 cells assessed as reduction in cell viability after 48 hrs by MTT assay. Type of data set: functional, cell-based. The following applies: MCF7, 48 h.
The next data set concerns HOP-62. The experiment in a line: Growth inhibition of human HOP62 cells after 48 hrs by MTT assay. Type of data set: functional. Particulars: HOP-62, 48 h.
A further data set relates to HeLa. Put plainly: Cytotoxicity against human HeLa cells assessed as reduction in cell viability after 48 hrs by MTT assay. Type of data set: functional, cell-based.
Another data set concerns HT-29. Put plainly: Anticancer activity against human HT-29 cells after 48 hrs by MTT assay. Type of data set: functional, cell-based. Particulars: HT-29, 48 h.
Data set [10] relates to HepG2. Put plainly: Anticancer activity against human HepG2 cells after 48 hrs by MTT assay. Type of data set: functional, cell-based. Particulars: HepG2, 48 h.
In data set [11] the test system is MCF7. The experiment in a line: Anticancer activity against human MCF7 cells after 48 hrs by MTT assay. Type of data set: functional, cell-based. The following applies: MCF7, 48 h.
In another data set the test system is A549. Put plainly: Anticancer activity against human A549 cells after 48 hrs by MTT assay. Type of data set: functional, cell-based. The following applies: A549, 48 h.
Data set [12] can be described thus: Half life in human liver microsome. Type of data set: ADME. Particulars: liver microsomes.
Data set [13] has as its system MCF7. The experiment in a line: Growth inhibition of human MCF7 cells after 48 hrs by MTT assay. The following applies: MCF7, 48 h. Type of data set: functional.
The subject of data set [14] is HepG2. The experiment in a line: Anticancer activity against human HepG2 cells after 48 hrs by SRB assay. Particulars: HepG2, 48 h.

`CC(C)(C)n1nnc([C@H](CCCNC(=N)CCl)NC(=O)c2ccc(-c3ccccc3)cc2)n1`: in the data set on U2OS [1], the Activity stood at 0%. Also, the EC50 in the data set on U2OS [2] was 10 µM.

Regarding `CCC(C)n1ncn(-c2ccc(N3CCN(c4ccc(OC[C@@H]5CO[C@@](Cn6nnnc6-c6ccccc6)(c6ccc(Cl)cc6Cl)O5)cc4)CC3)cc2)c1=O` (some centres undefined), the IC50 with HUVEC is 0.119 µM.

On to `CCC(C)n1ncn(-c2ccc(N3CCN(c4ccc(OC[C@@H]5CO[C@@](Cn6ncnn6)(c6ccc(Cl)cc6Cl)O5)cc4)CC3)cc2)c1=O` (some centres undefined), for which the IC50 in the data set on HUVEC was determined as 0.124 µM.

In the case of `CCC(C)n1ncn(-c2ccc(N3CCN(c4ccc(OC[C@@H]5CO[C@@](Cn6nnnc6C)(c6ccc(Cl)cc6Cl)O5)cc4)CC3)cc2)c1=O` (some centres undefined), the IC50 with HUVEC was determined as 0.101 µM.

Turning to `Clc1ccccc1-c1nnnn1CCCn1cnc2c(Br)c(Br)c(Br)c(Br)c21`, the viability, % of control at 10 µM was 65% in the data set with CCRF-CEM [3] and 51% in the data set on CCRF-CEM [6]. Also, the viability, % of control at 25 µM in the data set on CCRF-CEM [4] and in the data set on CCRF-CEM [7] was 1% throughout. The values for the viability, % of control at 50 µM in the data set on CCRF-CEM [5] and in the data set with CCRF-CEM [8] were 2% and 0%, respectively.

As for `CC(C)(C)n1nnc([C@H](CCCNC(=N)CBr)NC(=O)c2ccc(-c3ccccc3)cc2)n1`, the Activity in the data set on U2OS [1] is 50%. In addition, in the data set on U2OS [2], the EC50 is 45 µM.

With `Brc1c(Br)c(Br)c2c(ncn2CCCn2nnnc2-c2ccccc2)c1Br`, the values for the viability, % of control at 10 µM with CCRF-CEM [3] and in the data set on CCRF-CEM [6] were 67% and 57%, respectively. Besides, the viability, % of control at 25 µM with CCRF-CEM [4] was 4%; in the data set with CCRF-CEM [7], 0%. Further, the viability, % of control at 50 µM with CCRF-CEM [5] worked out at 2%; in the data set on CCRF-CEM [8], 0%.

For `CCOC(=O)Cn1nnnc1/C(=C/c1ccc(F)cc1)NC(=O)c1ccccc1`, the IC50 with MCF7 [9] is 47.9 µM.

For the compound `O=[N+]([O-])c1ccc(-c2nnnn2-c2ccc(-c3nc4ccccc4o3)cc2)cc1`, the GI50 with HOP-62 turned out to be 1.22 µM.

As to `O=[N+]([O-])c1cccc(-c2nnnn2-c2ccc(-c3nc4ccccc4o3)cc2)c1`, the GI50 in the data set with HOP-62 came out at 2.9 µM.

Take `Clc1ccccc1-c1nnn(CCCn2cnc3c(Br)c(Br)c(Br)c(Br)c32)n1`: the viability, % of control at 10 µM in the data set on CCRF-CEM [3] is 102%; with CCRF-CEM [6] it was 104%. Besides, the results for the viability, % of control at 25 µM in the data set on CCRF-CEM [4] and in the data set with CCRF-CEM [7] were 96% and 89%, respectively. Moreover, the viability, % of control at 50 µM was 68% in the data set on CCRF-CEM [5] and 42% in the data set with CCRF-CEM [8].

For the compound `CCOC(=O)Cn1nnnc1/C(=C/c1ccc(OC)cc1)NC(=O)c1ccccc1`, in the data set on MCF7 [9], the IC50 amounted to 44.6 µM.

For `Fc1ccc(/C=C/c2nc3ccc(Br)cc3c3nnnn23)cc1`, the figures for the IC50 with MCF7 [9] and with HeLa were 21 µM and 22.4 µM, respectively.

Regarding `Fc1ccc(-c2ccc3nc(/C=C/c4ccccc4)n4nnnc4c3c2)cc1`, the IC50 in the data set with MCF7 [9] and in the data set with HeLa was over 200 µM throughout.

For `Brc1ccc2nc(/C=C/c3ccccc3)n3nnnc3c2c1`, the IC50 came out at 9.6 µM in the data set on MCF7 [9] and 7.3 µM in the data set on HeLa.

In turn, `COc1cc(-c2nnnn2-c2ccc(-c3nc4ccccc4o3)cc2)cc(OC)c1OC` came in with a GI50 in the data set with HOP-62 of 1.67 µM.

With `O=C(NC(=O)Nc1ccc(F)cc1F)Nc1ccc(Oc2ccnc(-n3cnnn3)c2)c(F)c1`, the IC50 with HT-29 came to 5.97 µM; with HepG2 [10], 5.72 µM; with MCF7 [11], 9.88 µM; in the data set on A549 it was 10.6 µM. The same compound returned a half-life in data set [12] of 9.17 h.

Take `O=C(NC(=O)Nc1ccc(Oc2ccnc(-n3cnnn3)c2)c(F)c1)Nc1cccc(F)c1`: the IC50 turned out to be 20.6 µM in the data set with HT-29, 0.55 µM in the data set on HepG2 [10], 7.76 µM in the data set on MCF7 [11] and 6.25 µM with A549. This compound also registered a half-life in data set [12] of 2.28 h.

Turning to `Brc1c(Br)c(Br)c2c(ncn2CCCn2nnc(-c3ccccc3)n2)c1Br`, the figures for the viability, % of control at 10 µM in the data set on CCRF-CEM [3] and in the data set on CCRF-CEM [6] were 106% and 105%, respectively. The viability, % of control at 25 µM with CCRF-CEM [4] is 73%; in the data set with CCRF-CEM [7], 64%. In addition, the results for the viability, % of control at 50 µM in the data set on CCRF-CEM [5] and in the data set on CCRF-CEM [8] were 4% and 0%, respectively.

On to `CCOC(=O)Cn1nnnc1/C(=C/c1ccc(Cl)cc1)NC(=O)c1ccccc1`, for which the IC50 in the data set with MCF7 [9] is 40.2 µM.

For `Fc1ccc(C#Cc2ccc3nc(/C=C/c4ccccc4)n4nnnc4c3c2)cc1`, the IC50 in the data set with MCF7 [9] and in the data set on HeLa was over 200 µM each time.

On to `N[C@@H](Cc1ccc(N(CCCl)CCCl)cc1)C(=O)O`, for which the IC50 with MCF7 [9] came to 61 µM; in the data set with HeLa, 88.9 µM.

With `COc1cccc2c1C(=O)c1c(O)c3c(c(O)c1C2=O)C[C@@](O)(C(=O)CO)C[C@@H]3O[C@H]1C[C@H](N)[C@H](O)[C@H](C)O1` [DOXORUBICIN HYDROCHLORIDE], the GI50 with MCF7 [13] came out at 170 µM; in the data set on HOP-62, 0.14 µM.

In the data set on HepG2 [14], `COc1cccc2c1C(=O)c1c(O)c3c(c(O)c1C2=O)C[C@@](O)(C(=O)CO)C[C@@H]3O[C@H]1C[C@H](N)[C@H](O)[C@H](C)O1` [DOXORUBICIN] registered an IC50 of 4000 µg/mL (≈ 7.36 mM).

`CNC(=O)c1cc(Oc2ccc(NC(=O)Nc3ccc(Cl)c(C(F)(F)F)c3)cc2)ccn1` [SORAFENIB]: the IC50 in the data set with HT-29 was found to be 10.1 µM; in the data set with HepG2 [10], 9.64 µM; with MCF7 [11] it was 10.9 µM; in the data set with A549, 11.2 µM.
